Values of other authors as cited in patent US20090214511A1, “DIGESTIBLE COMPOSITIONS OF INULIN FOR MANAGING BLOOD GLUCOSE LEVELS” (priority 2008, published 2009).

Compound	cumulative incidence of monotherapy failure at 5 years (Type 2 diabetes, initial choice of anti-diabetic drug, 5 years) [%]	weight gain and edema versus non-users (randomized controlled trial, users vs non-users)
CN(C)C(=N)N=C(N)N [metformin]	21	
CN(CCOc1ccc(CC2SC(=O)NC2=O)cc1)c1ccccn1 (centres unmarked) [rosiglitazone]		more weight gain and edema
